This note sets out measurements from patent US11226337B2, “Chemoproteomic profiling of protein electrophilic and oxidative post-translational modifications” (Zenagem, LLC, priority 2017, dated 2022).

Test in all cases: SILAC RP-ABPP
What all share (type): cell-based

In experiment [1] the target is T1, CTSD Cathepsin D (P07339) (Homo sapiens, UniProt P07339).
T1 construct: In Situ Labelling of Cells with Hydrazine Probes for MS Experiments; endogenous in cells; host or cells: HEK293T and MDA-MB-231
T1 sequence (P07339 65-412): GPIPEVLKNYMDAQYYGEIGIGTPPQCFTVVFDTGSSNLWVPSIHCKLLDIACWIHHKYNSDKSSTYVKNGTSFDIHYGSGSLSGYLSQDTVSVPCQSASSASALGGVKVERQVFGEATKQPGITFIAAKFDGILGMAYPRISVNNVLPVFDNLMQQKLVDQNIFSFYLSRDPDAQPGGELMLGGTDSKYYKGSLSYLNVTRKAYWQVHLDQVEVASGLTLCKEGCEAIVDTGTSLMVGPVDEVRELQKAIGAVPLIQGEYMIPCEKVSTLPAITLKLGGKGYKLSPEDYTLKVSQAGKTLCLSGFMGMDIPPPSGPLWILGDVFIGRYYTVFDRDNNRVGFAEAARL
As to conditions: SILAC H/L. As for the experimental part: (§1) For MS-based experiments, labelling was performed in a similar manner as described above in Example 2, maintaining the same concentrations of probes. Modifications to this protocol included using isotopically ‘light’ and ‘heavy’ SILAC cells that were also grown to near complete confluence prior to treatment. Isotopically light cells were treated with the non-clickable hydrazine probe (at the same concentration as the probe in ‘enrichment’ experiments) or the probe in the presence of 10-fold excess non-clickable hydrazine probe as a competitor (in ‘competition’ experiments). Isotopically heavy cells were treated with the probe for both types of experiments. These treatments were performed in non-SILAC media. Following treatments, cells were washed with cold PBS to remove the probe-containing media, harvested by scraping, collected by centrifugation (1,400 g, 3 min, 4° C.), washed again by resuspension in cold PBS and frozen as pellets at −80° C. until use.
(§2) The fractionated equimolar mixture of heavy and light soluble proteomes (1-1.5 mg) was diluted to 1 mL in PBS. Click reactions were scaled accordingly (except for biotin-azide) to maintain final concentrations of 0.1 mM TBTA, 1 mM CuSO4, 100 μM biotin-azide (10 mM in DMSO) and 1 mM TCEP. The mixture was vortexed and placed on a rotator at ambient temperature for 1 hour. Sequential addition of and mixture with pre-chilled methanol (MeOH, 2 mL), chloroform (CHCl3, 0.5 mL) and PBS (1 mL) on ice quenched the reaction. The precipitated proteome was centrifuged (5,000 g, 10 min, 4° C.) to fractionate the protein interphase from the organic and aqueous solvent layers. The protein pellet was washed with cold 1:1 MeOH:CHCl3 (3×1 mL), mildly sonicated in cold 4:1 MeOH:CHCl3 (2.5 mL) and pelleted once more by centrifugation (5,000 g, 10 min, 4° C.) to ensure click reagents were efficiently removed.
(§3) Heavy and light parent ion chromatograms associated with successfully identified peptides were extracted and compared using CIMAGE software as previously described^69. At least one ion of a co-eluting heavy-light pair must be accurately identified from a fragmentation event that occurred within the retention time window (±10 min) of parent ion elution. To ensure that the correct pair of peaks is quantified, chromatograms are extracted within a 10 ppm error tolerance of the predicted m/z, the signal-to-noise ratio must be >2.5 and the ‘co-elution correlation score’ and ‘envelope correlation score’ must have R^2 values ≥0.8. In addition, peptides detected as ‘singletons,’ where only the heavy ion of a peptide pair was identified, but for which passed all other filtering parameters, are given a default assigned ratio of ‘20,’ which is defined as any measured ratio that is ≥20.
(§4) To further eliminate false positives and any stochastic variability in the data, protein ratios were then determined by the median peptide ratio derived from three or more unique quantified peptides. Protein ratios that complied with these criteria from a single experiment were then averaged with ratios acquired from ≥3 replicates to provide final values for each type of experiment in both cell lines with both probes. […] Most importantly, there are no robustly measured ratios for proteins identified as probe 1 targets that had measured ratios of ˜1 with probe 2. Probe targets in HEK293T and MDA-MB-231 cells represent data combined from ≥3 independent biological replicates with each cell type performed with several independent batches of synthesized probes over a period of almost two years. […]

Experiment [2] deals with T2, P4HA1 Prolyl 4hydroxylase subunit alpha1 (P13674) (Homo sapiens, UniProt P13674).
T2 construct: In Situ Labelling of Cells with Hydrazine Probes for MS Experiments; endogenous in cells
T2 sequence (P13674 18-534): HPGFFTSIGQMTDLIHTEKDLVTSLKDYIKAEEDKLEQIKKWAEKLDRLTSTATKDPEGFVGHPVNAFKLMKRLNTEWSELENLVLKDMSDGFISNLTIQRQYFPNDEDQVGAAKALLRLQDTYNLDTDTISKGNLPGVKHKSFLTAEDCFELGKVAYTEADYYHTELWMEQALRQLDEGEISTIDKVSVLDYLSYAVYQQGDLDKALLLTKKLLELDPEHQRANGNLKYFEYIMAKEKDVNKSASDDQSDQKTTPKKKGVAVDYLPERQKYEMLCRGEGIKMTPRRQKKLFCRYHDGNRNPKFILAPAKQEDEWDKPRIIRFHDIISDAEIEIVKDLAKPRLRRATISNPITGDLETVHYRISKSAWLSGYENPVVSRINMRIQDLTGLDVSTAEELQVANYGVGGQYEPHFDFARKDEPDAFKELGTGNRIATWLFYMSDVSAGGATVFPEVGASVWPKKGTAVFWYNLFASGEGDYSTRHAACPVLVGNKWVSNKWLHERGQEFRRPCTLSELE
T2 sequence (P07237 18-508 partner): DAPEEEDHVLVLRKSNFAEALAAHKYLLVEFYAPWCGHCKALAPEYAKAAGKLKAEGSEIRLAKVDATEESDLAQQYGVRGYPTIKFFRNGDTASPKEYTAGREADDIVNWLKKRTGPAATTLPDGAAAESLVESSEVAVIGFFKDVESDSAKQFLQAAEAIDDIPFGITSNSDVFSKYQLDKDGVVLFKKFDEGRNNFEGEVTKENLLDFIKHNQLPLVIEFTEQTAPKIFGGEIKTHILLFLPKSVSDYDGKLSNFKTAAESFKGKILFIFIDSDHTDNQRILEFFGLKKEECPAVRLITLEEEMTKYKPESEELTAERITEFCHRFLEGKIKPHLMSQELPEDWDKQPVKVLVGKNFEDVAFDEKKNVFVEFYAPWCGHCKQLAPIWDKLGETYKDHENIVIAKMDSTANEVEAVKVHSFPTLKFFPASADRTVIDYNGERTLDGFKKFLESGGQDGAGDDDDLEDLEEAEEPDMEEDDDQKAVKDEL
The note with it: SILAC H/L, MDA-MB-231. The method, then:
as §1, §2, §3, §4

The target of experiment [3] is T3, PLOD1 Procollagenlysine, 2oxoglutarate (Q02809) (Homo sapiens, UniProt Q02809).
T3 construct: In Situ Labelling of Cells with Hydrazine Probes for MS Experiments; endogenous in cells
T3 sequence (Q02809 19-727): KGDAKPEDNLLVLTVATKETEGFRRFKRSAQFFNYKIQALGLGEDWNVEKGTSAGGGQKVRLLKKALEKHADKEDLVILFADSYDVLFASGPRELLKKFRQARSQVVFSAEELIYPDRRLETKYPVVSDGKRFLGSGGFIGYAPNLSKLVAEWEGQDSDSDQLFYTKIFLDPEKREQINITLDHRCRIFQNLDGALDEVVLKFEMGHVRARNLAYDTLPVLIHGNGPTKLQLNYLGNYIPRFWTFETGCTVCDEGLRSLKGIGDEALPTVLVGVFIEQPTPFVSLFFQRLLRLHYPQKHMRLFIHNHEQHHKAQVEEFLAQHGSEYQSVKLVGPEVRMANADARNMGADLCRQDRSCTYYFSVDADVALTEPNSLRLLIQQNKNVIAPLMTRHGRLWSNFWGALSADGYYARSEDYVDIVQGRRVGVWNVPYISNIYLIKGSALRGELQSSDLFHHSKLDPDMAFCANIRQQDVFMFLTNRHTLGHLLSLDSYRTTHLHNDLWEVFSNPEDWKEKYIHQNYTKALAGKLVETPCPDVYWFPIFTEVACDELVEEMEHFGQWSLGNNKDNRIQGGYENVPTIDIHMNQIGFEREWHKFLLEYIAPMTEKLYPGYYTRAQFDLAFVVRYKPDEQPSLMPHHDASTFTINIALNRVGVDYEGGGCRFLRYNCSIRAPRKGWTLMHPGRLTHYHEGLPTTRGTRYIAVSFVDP
As to conditions: SILAC H/L, MDA-MB-231. The method, then:
as §1, §2, §3, §4

For experiment [4], the target named is T4, PSAP Proactivator polypeptide (P07602) (Homo sapiens, UniProt P07602).
T4 construct: In Situ Labelling of Cells with Hydrazine Probes for MS Experiments; endogenous in cells; host or cells: HEK293T and MDA-MB-231
T4 sequence (P07602 60-524): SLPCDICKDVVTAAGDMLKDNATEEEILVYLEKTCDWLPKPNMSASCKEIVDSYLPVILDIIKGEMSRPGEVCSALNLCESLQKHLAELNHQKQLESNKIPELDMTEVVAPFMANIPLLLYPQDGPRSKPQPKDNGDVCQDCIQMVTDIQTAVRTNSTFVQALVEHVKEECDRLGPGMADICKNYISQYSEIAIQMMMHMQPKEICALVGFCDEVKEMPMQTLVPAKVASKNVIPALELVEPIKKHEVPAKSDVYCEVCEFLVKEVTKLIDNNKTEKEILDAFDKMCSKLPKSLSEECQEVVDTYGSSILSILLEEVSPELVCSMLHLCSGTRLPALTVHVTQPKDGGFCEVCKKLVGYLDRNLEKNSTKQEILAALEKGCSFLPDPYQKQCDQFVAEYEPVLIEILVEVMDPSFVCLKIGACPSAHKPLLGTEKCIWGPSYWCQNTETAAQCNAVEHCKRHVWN
The note with it: SILAC H/L, MDA-MB-231. The method, then: as §1, §2, §3, §4

As to `C#CCNN.Cl` [probe 1, prop-2-yn-1-ylhydrazine hydrochloride], the enrichment ratioavg in experiment [1] (probe 1 3 mM 0.5 h vs probe 3, HEK293T) is listed as 13; in experiment [2] (probe 1 3 mM 0.5 h vs probe 3) it was 15; in experiment [3] (probe 1 3 mM 0.5 h vs probe 3), 6; in experiment [4] (probe 1 3 mM 0.5 h vs probe 3), 12. In addition, the competition ratioavg was 1 in experiment [1] (probe 1 vs probe 1+10x probe 3, HEK293T); 2 in experiment [2] (probe 1 vs probe 1+10x probe 3); 3 in experiment [3] (probe 1 vs probe 1+10x probe 3); 3 in experiment [4] (probe 1 vs probe 1+10x probe 3).

For `C#CCCNC(=O)c1ccc(NN)cc1.Cl` [probe 2, N-(but-3-yn-1-yl)-4-hydrazinylbenzamide hydrochloride], the enrichment ratioavg in experiment [1] (probe 2 1 mM 0.5 h vs probe 4, MDA-MB-231) is 16; in experiment [2] (probe 2 1 mM 0.5 h vs probe 4) it was 8; in experiment [3] (probe 2 1 mM 0.5 h vs probe 4), 8; in experiment [4] (probe 2 1 mM 0.5 h vs probe 4), 5. Also, the competition ratioavg in experiment [1] (probe 2 vs probe 2+10x probe 4, MDA-MB-231) was determined as 4; in experiment [2] (probe 2 vs probe 2+10x probe 4) it was 3; in experiment [3] (probe 2 vs probe 2+10x probe 4), 3; in experiment [4] (probe 2 vs probe 2+10x probe 4) it was 5.
